Where a name gives a salt, the structure may show the parent alone.
Key:
[1] = test system: U2OS cells transfected with siCT or siLMNA; experiment: Cell density after cycloheximide (DAPI staining); type: cell-based, human; conditions: 24 h treatment
Procedure: FIG. 16: Compound 2 decreases protein translation of Lamin A/C depleted cells. A) U2OS cells transfected with siRNA control (siCT) or siRNA Lamin A/C (siLMNA) were plated at the same density, treated with cycloheximide (CHX) for 24 h to inhibit protein synthesis and stained with DAPI. […] B) Protein synthesis was measured by quantifying the incorporation of HPG, a clickable analogue of methionine.

[2] = test system: LMNA knock out (KO) U2OS cell line; experiment: Cell growth of LMNA KO versus LMNA WT U2OS cells (IncuCyte ZOOM); type: cell-based, human; conditions: U2OS LMNA KO
Description: LMNA knock out (KO) U2OS cell line was engineered using CripR/Cas9 technology. The sensitivity of LMNA KO cells to Compound 2 was compared to cells expressing wild type LMNA (LMNA WT). Cell growth was monitored automatically over time using an IncuCyte ZOOM®. The results are shown in FIG. 21 which has been split into two graphs for easier reading of the curves.

normal human fibroblasts = experiment: Nuclear shape of normal fibroblasts, with or without FTI; type: cell-based
Description: FIG. 11: Remodelin prevents FTI induced nuclear shape defects in non-progeric cells. A) Analysis of Lamin A/C processing after Remodelin or FTI treatment, showing that Remodelin is not a FTI. B) Representative pictures of Lamin A/C IF staining after the indicated treatments. Arrows indicate FTI induced misshapen nuclei in normal fibroblasts. Scale bar: 50 μm. C) Quantification of misshapen nuclei with the indicated cell lines and inhibitor treatments (means of three independent experiments±s.e.m. n>178). D) Representative pictures of DAPI staining showing effects of FTI and Remodelin on nuclear shape of U2OS cells. Scale bars: 20 μm.
U2OS and SaOS-2 osteosarcoma cells, HeLa cervical cancer cells, A431 melanoma cells, NCI-SNU5 gastric cancer cells, MRC-5 lung fibroblast cells and Werner syndrome patient-derived SV40 fibroblast cells were grown in Dulbecco's modified Eagle medium (DMEM, Sigma-Aldrich) supplemented with 10% fetal bovine serum (BioSera), 2 mM L-glutamine, 100 U per ml penicillin, 100 μg ml^−1 streptomycin. […] Cells were analysed 48 to 72 hours after transfection.
The following KAT and KDAC inhibitors were used in the nuclear shape rescue screen, incubating cells with the molecules for 16 hours: trichostatin A (1 μM), sodium butyrate (5 mM), tubacin (10 μM), SAHA (5 μM), curcumin (10 μM), garcinol (50 μM), anacardic acid (1 μM), MB-3 (5 μM), 4-(4-chlorophenyl)-2-(2-cyclopentylidenehydrazinyl)thiazole (Compound 2) (50 μM), 4-(4-chlorophenyl)-2-(2-cyclopentylidene-1-(prop-2-yn-1-yl)hydrazinyl)thiazole (Compound 3) (50 μM) and cyclopentylidene-[4-(4-cyanophenyl)thiazol-2-yl)hydrazine (Compound 1) (Remodelin) (10 to 50 μM). […] Senescence was assessed after 8 days of Remodelin treatment when cells were at Population Doubling 12, and then after several weeks of Remodelin treatment, when cells reached Population Doubling 24 using the Senescence β-Galactosidase Staining Kit #9860 from Cell Signaling. […]

[3] = test system: HGPS primary fibroblasts (AG11498 and AG06267); experiment: Misshapen nuclei in HGPS cells; type: cell-based, human; conditions: HGPS patient fibroblasts
Procedure: (§1) U2OS and SaOS-2 osteosarcoma cells, HeLa cervical cancer cells, A431 melanoma cells, NCI-SNU5 gastric cancer cells, MRC-5 lung fibroblast cells and Werner syndrome patient-derived SV40 fibroblast cells were grown in Dulbecco's modified Eagle medium (DMEM, Sigma-Aldrich) supplemented with 10% fetal bovine serum (BioSera), 2 mM L-glutamine, 100 U per ml penicillin, 100 μg ml^−1 streptomycin. Normal skin primary fibroblasts GM03440 and Hutchinson Gilford Progeria Syndrome (HGPS) skin primary fibroblasts AG11498 and AG06297 were purchased from Coriell Cell Repositories and used between passage number 9-12 and 20-23 respectively. Cells were grown in DMEM supplemented as above. RPE-1 retinal pigment epithelial cells were grown in DMEM and Ham F12 mix medium supplemented as above and buffered with sodium bicarbonate. HMV-II melanoma cell line, 22RV1 prostate carcinoma cells, NCI-H82 and NCI-H69 lung carcinoma cells, and NCI-N87 gastric cancer cell lines were grown in RPMI-1640 medium (Sigma-Aldrich) supplemented as above. Stably transfected U2OS cells were maintained in standard medium containing 1 mg ml^−1 G418 (Invitrogen). The siRNA duplexes were obtained from Life Sciences: Lamin A/C stealth RNAi: […] (SEQ ID NO: 1) and […] (SEQ ID NO: 2), NAT10 stealth RNAi: […] (SEQ ID NO: 3), and as control siRNA, stealth RNAi negative control duplexes were used. Plasmid DNA and siRNA transfections were carried out using Lipofectamine 2000 and Lipofectamine RNAiMax (Life Sciences) respectively, following the manufacturer's instructions. Cells were analysed 48 to 72 hours after transfection.
(§2) The following KAT and KDAC inhibitors were used in the nuclear shape rescue screen, incubating cells with the molecules for 16 hours: trichostatin A (1 μM), sodium butyrate (5 mM), tubacin (10 μM), SAHA (5 μM), curcumin (10 μM), garcinol (50 μM), anacardic acid (1 μM), MB-3 (5 μM), 4-(4-chlorophenyl)-2-(2-cyclopentylidenehydrazinyl)thiazole (Compound 2) (50 μM), 4-(4-chlorophenyl)-2-(2-cyclopentylidene-1-(prop-2-yn-1-yl)hydrazinyl)thiazole (Compound 3) (50 μM) and cyclopentylidene-[4-(4-cyanophenyl)thiazol-2-yl)hydrazine (Compound 1) (Remodelin) (10 to 50 μM). For HGPS cellular fitness assays, Remodelin was incubated at 1 μM for 1 to 10 days, renewing the medium every 3 days. For long-term senescence assay, cells were kept and passaged in medium containing 1 μM Remodelin or DMSO only for 12 population doublings. Senescence was assessed after 8 days of Remodelin treatment when cells were at Population Doubling 12, and then after several weeks of Remodelin treatment, when cells reached Population Doubling 24 using the Senescence β-Galactosidase Staining Kit #9860 from Cell Signaling. Nocodazole, colchicine and latrunculin A (Sigma-Aldrich) were used at 200 ng/ml, 1 μg/ml and 1 μM respectively. […]

[4] = test system: Lamin A/C depleted (siLMNA) U2OS cells; experiment: Nuclear shape rescue (DAPI staining, nuclear circularity) in Lamin A/C depleted cells; type: cell-based, human; conditions: 16 hours, Compound 2 and 3 50 μM, MB-3 5 μM, FTI 5 μM, nocodazole 200 ng/ml, colchicine 1 μg/ml, latrunculin A 1 μM
Procedure: as §1
(§3) The following KAT and KDAC inhibitors were used in the nuclear shape rescue screen, incubating cells with the molecules for 16 hours: trichostatin A (1 μM), sodium butyrate (5 mM), tubacin (10 μM), SAHA (5 μM), curcumin (10 μM), garcinol (50 μM), anacardic acid (1 μM), MB-3 (5 μM), 4-(4-chlorophenyl)-2-(2-cyclopentylidenehydrazinyl)thiazole (Compound 2) (50 μM), 4-(4-chlorophenyl)-2-(2-cyclopentylidene-1-(prop-2-yn-1-yl)hydrazinyl)thiazole (Compound 3) (50 μM) and cyclopentylidene-[4-(4-cyanophenyl)thiazol-2-yl)hydrazine (Compound 1) (Remodelin) (10 to 50 μM). For HGPS cellular fitness assays, Remodelin was incubated at 1 μM for 1 to 10 days, renewing the medium every 3 days. For long-term senescence assay, cells were kept and passaged in medium containing 1 μM Remodelin or DMSO only for 12 population doublings. Senescence was assessed after 8 days of Remodelin treatment when cells were at Population Doubling 12, and then after several weeks of Remodelin treatment, when cells reached Population Doubling 24 using the Senescence β-Galactosidase Staining Kit #9860 from Cell Signaling. Nocodazole, colchicine and latrunculin A (Sigma-Aldrich) were used at 200 ng/ml, 1 μg/ml and 1 μM respectively. Aphidicolin (Sigma-Aldrich) was used at 5 μg/ml for 16 h. Farnesyltransferase inhibitor FTI-277 was purchased from Tocris Bioscience and used at 5 μM. ATMi (KU55933) and ATRi (ATR-45) were obtained from Tocris Bioscience and from the Ohio State University respectively and used at 10 μM and 500 nM. Pifithrin alpha (Sigma-Aldrich) was used at 10 μM.
CellProfiler software was used to quantify nuclear circularity and nuclear area from DAPI staining pictures, using the “object size shape” measurement. The AreaShape measurement allowed the calculation of the Form Factor index ([…]) corresponding to circularity (a Form Factor of 1 reflecting a perfect circle), as well as the calculation of nuclear Area.
Lamin A/C was depleted by siRNA in U2OS cells (siLMNA) to induce misshapen nuclei. Cells were then treated for 16 h with various analogues of Compound 2 and nuclear shape rescue was analysed by DAPI staining. The results are shown in FIG. 18 and FIG. 19 which display the structures of the tested molecules and their ability to rescue nuclear shape.

[5] = test system: farnesyltransferase activity (pre-Lamin A cleavage and maturation); experiment: Lamin A processing by western blotting; type: cell-based, human
Procedure: as §2, with “Signaling.” for “Signaling. Nocodazole, colchicine and latrunculin A (Sigma-Aldrich) were used at 200 ng/ml, 1 μg/ml and 1 μM respectively.”
Total cell extracts were prepared by scraping cells in SDS lysis buffer (4% SDS, 20% glycerol, and 120 mM Tris-HCl, pH 6.8), boiling for 5 minutes at 95° C., followed by 10 strokes through a 25-gauge needle. […] Detection and quantification was performed with an imager (Odyssey; LI-COR Biosciences).

[6] = test system: cells (sub-cellular distribution); experiment: Fluorescent labelling of clickable molecules (sub-cellular distribution); type: cell-based; conditions: 2 hours pre-incubation, Alexa fluor 488 Azide click
Procedure: Cells were pre-incubated with clickable molecules Compound 3 or Reference Compound A (1-Chloro-4-ethynilbenzene, purchased from Sigma-Aldrich) for 2 hours before being fixed and permeabilised as described above. Click reaction was prepared using Invitrogen Click-iT reagents with Alexa fluor 488 Azide and incubated with fixed cells for 1 hour in the dark. In case of co-labelling with another protein, the click reaction was performed before the antibody incubations.

HGPS AG11498 cells = experiment: Senescence-associated β-galactosidase in HGPS cells; type: cell-based, human; conditions: HGPS AG11498; Remodelin 1 μM, Pifithrin alpha 10 μM
Procedure: as §3

| Compound | misshapen nuclei / nuclear shape of HGPS cells [3] | nuclear shape / nuclear circularity rescue [4] | other results |
| --- | --- | --- | --- |
| C[C@@H]1C[C@@H]([C@H](O)CC2CC(=O)NC(=O)C2)C(=O)[C@@H](C)C1 [CHX, cycloheximide] | – | – | resistance of siLMNA versus siCT cells to protein synthesis inhibition [1]: siLMNA cells are more resistant to CHX |
| FC(F)(F)c1ccc(-c2csc(NN=C3CCCC3)n2)cc1 [Compound 13, 4-(4-Trifluoromethylphenyl)-2-(2-cyclopentylidenehydrazinyl)thiazole Hydrobromide Salt] | – | – | potency on LMNA KO cell growth inhibition compared to Compound 2 [2]: increased potency of Compound 13, compared to Compound 2 |
| COC(=O)[C@H](CCSC)NC(=O)c1ccc(NC[C@@H](N)CS)cc1-c1ccccc1 [FTI, reference compound] | improves the nuclear shape of HGPS cells | does not improve nuclear morphology in LMNA-depleted cells | nuclear shape of normal cells (normal human fibroblasts): has the opposite effect on normal cells; pre-Lamin A processing [5]: caused accumulation of the pre-Lamin A intermediate |
| C=C1C(=O)OC(CCC)C1C(=O)O (stereo not drawn) [MB-3] | – | did not improve nuclear circularity | – |
| C#Cc1ccc(Cl)cc1 [Reference Compound A, 1-Chloro-4-ethynilbenzene, reference compound] | – | inactive | sub-cellular distribution of fluorescently labelled molecule [6]: little or no cellular staining |
| COc1cc2c(c(OC)c1OC)-c1ccc(OC)c(=O)cc1[C@@H](NC(C)=O)CC2 [colchicine] | also rescued the nuclear shape defects | also rescued the nuclear shape defects of siLMNA cells | – |
| C/C1=C/C(=O)O[C@@H]2C[C@@H](CC[C@H](C)/C=C\C=C\CC1)O[C@@](O)([C@@H]1CSC(=O)N1)C2 [latrunculin A] | – | increased nuclear distortion | – |
| COC(=O)Nc1nc2ccc(C(=O)c3cccs3)cc2[nH]1 [nocodazole] | also rescued the nuclear shape defects | also rescued the nuclear shape defects of siLMNA cells | – |
| Pifithrin [reference compound] | – | – | senescence of HGPS cells (β-galactosidase positive cells) (HGPS AG11498 cells): none of these compounds decrease the senescence |
